{"source": "patent US6573274B1", "about": "“Sulfonamide compounds and uses thereof as medicines” (Fujisawa Pharmaceutical Co. Ltd., priority 1998, dated 2003)", "note": "Where a name gives a salt, the structure may show the parent alone.", "data": [{"compound": "CCCCCS(=O)(=O)NC(=O)c1ccc2nc(C)n(Cc3cnc(Cl)cc3Cl)c2n1", "values": [{"measurement": "melting point", "value": "161 to 163", "unit": "°C"}]}, {"compound": "CCCCCS(=O)(=O)NC(=O)c1cc(C)c2nc(C)n(Cc3ccc(C#Cc4ccccc4)cc3Cl)c2n1.[Na]", "values": [{"measurement": "melting point", "value": "175 to 178", "unit": "°C"}]}, {"compound": "CCCCCS(=O)(=O)NC(=O)c1ccc2nc(C)n(Cc3ccc(-c4ccc(Cl)s4)cc3Cl)c2n1.[Na]", "values": [{"measurement": "melting point", "value": "> 250", "unit": "°C"}]}, {"compound": "Cc1cc(C(=O)NS(=O)(=O)c2ccc(Br)s2)nc2c1nc(C)n2Cc1ccc(-c2ccccc2)cc1Cl.[Na]", "values": [{"measurement": "melting point", "value": "> 250", "unit": "°C"}]}, {"compound": "CCCCCS(=O)(=O)NC(=O)c1ccc2nc(C)n(Cc3ccc(N(C)C(=O)OC(C)(C)C)cc3Cl)c2n1.[Na]", "values": [{"measurement": "melting point", "value": "231 to 233", "unit": "°C"}]}, {"compound": "CCC/C=C/S(=O)(=O)NC(=O)c1ccc2nc(C)n(Cc3ncc(NC(=O)OC(C)(C)C)cc3Cl)c2n1", "note": "(as salt: sodium) [Example 130, 3-[(5-(N-(tert-butoxycarbonyl)amino)-3-chloropyridin-2-yl)methyl]-2-methyl-5-((E)-1-penten-1-ylsulfonylcarbamoyl)-3H-imidazo[4,5-b]pyridine]", "values": [{"measurement": "melting point", "value": "202 to 204", "unit": "°C"}]}, {"compound": "CCC/C=C/S(=O)(=O)NC(=O)c1ccc2nc(C)n(Cc3ncc(NC(=O)OCC)cc3Cl)c2n1", "note": "(as salt: sodium) [Example 133, 3-[(3-chloro-5-(N-(ethoxycarbonyl)amino)pyridin-2-yl)methyl]-2-methyl-5-((E)-1-penten-1-ylsulfonylcarbamoyl)-3H-imidazo[4,5-b]pyridine]", "values": [{"measurement": "melting point", "value": "236 to 239", "unit": "°C"}]}, {"compound": "CCCCCS(=O)(=O)NC(=O)c1ccc2nc(C)n(Cc3ccc(OC)cc3Cl)c2n1", "note": "[Example 5, 3-(2-chloro-4-methoxybenzyl)-2-methyl-5-(1-pentanesulfonylcarbamoyl)-3H-imidazo[4,5-b]pyridine]", "values": [{"measurement": "melting point", "value": "188 to 189", "unit": "°C"}]}, {"compound": "CCCCS(=O)(=O)NC(=O)c1ccc2nc(C)n(Cc3ccc(OC)cc3Cl)c2n1", "note": "[Example 6, 5-(1-butanesulfonylcarbamoyl)-3-(2-chloro-4-methoxybenzyl)-2-methyl-3H-imidazo[4,5-b]pyridine]", "values": [{"measurement": "melting point", "value": "175 to 177", "unit": "°C"}]}, {"compound": "CCCCCS(=O)(=O)NC(=O)c1ccc2nc(C)n(Cc3ccc(OCC)cc3Cl)c2n1", "note": "[Example 8, 3-(2-chloro-4-ethoxybenzyl)-2-methyl-5-(1-pentanesulfonylcarbamoyl)-3H-imidazo[4,5-b]pyridine]", "values": [{"measurement": "melting point", "value": "165 to 166", "unit": "°C"}]}, {"compound": "CCCCS(=O)(=O)NC(=O)c1ccc2nc(C)n(Cc3ccc(OCC)cc3Cl)c2n1", "note": "[Example 9, 5-(1-butanesulfonylcarbamoyl)-3-(2-chloro-4-ethoxybenzyl)-2-methyl-3H-imidazo[4,5-b]pyridine]", "values": [{"measurement": "melting point", "value": "151 to 152", "unit": "°C"}]}, {"compound": "CCCNS(=O)(=O)NC(=O)c1ccc2nc(C)n(Cc3ccc(OCC)cc3Cl)c2n1", "note": "[Example 10, 3-(2-chloro-4-ethoxybenzyl)-2-methyl-5-((1-propylaminosulfonyl)carbamoyl)-3H-imidazo[4,5-b]pyridine]", "values": [{"measurement": "melting point", "value": "152 to 155", "unit": "°C"}]}, {"compound": "CCCCNS(=O)(=O)NC(=O)c1ccc2nc(C)n(Cc3ccc(OCC)cc3Cl)c2n1", "note": "[Example 11, 5-((1-butylaminosulfonyl)carbamoyl)-3-(2-chloro-4-ethoxybenzyl)-2-methyl-3H-imidazo[4,5-b]pyridine]", "values": [{"measurement": "melting point", "value": "175 to 177", "unit": "°C"}]}, {"compound": "CCCCCS(=O)(=O)NC(=O)c1ccc2nc(C)n(Cc3ccc(OCCC)cc3Cl)c2n1", "note": "[Example 12, 3-(2-chloro-4-(1-propoxy)benzyl)-2-methyl-5-(1-pentanesulfonylcarbamoyl)-3H-imidazo[4,5-b]pyridine]", "values": [{"measurement": "melting point", "value": "131 to 134", "unit": "°C"}]}, {"compound": "CCCCS(=O)(=O)NC(=O)c1ccc2nc(C)n(Cc3ccc(OCCC)cc3Cl)c2n1", "note": "[Example 13, 5-(1-butanesulfonylcarbamoyl)-3-(2-chloro-4-(1-propoxy)benzyl)-2-methyl-3H-imidazo[4,5-b]pyridine]", "values": [{"measurement": "melting point", "value": "153 to 154", "unit": "°C"}]}, {"compound": "CCCCCS(=O)(=O)NC(=O)c1ccc2nc(C)n(Cc3ccc(OC(C)C)cc3Cl)c2n1", "note": "[Example 14, 3-(2-chloro-4-isopropoxybenzyl)-2-methyl-5-(1-pentanesulfonylcarbamoyl)-3H-imidazo[4,5-b]pyridine]", "values": [{"measurement": "melting point", "value": "130 to 133", "unit": "°C"}]}, {"compound": "CCCCS(=O)(=O)NC(=O)c1ccc2nc(C)n(Cc3ccc(OC(C)C)cc3Cl)c2n1", "note": "[Example 15, 5-(1-butanesulfonylcarbamoyl)-3-(2-chloro-4-isopropoxybenzyl)-2-methyl-3H-imidazo-[4,5-b]pyridine]", "values": [{"measurement": "melting point", "value": "138 to 141", "unit": "°C"}]}, {"compound": "CCCCCS(=O)(=O)NC(=O)c1ccc2nc(C)n(Cc3ccc(OCCCC)cc3Cl)c2n1", "note": "[Example 17, 3-(2-chloro-4-(1-butoxy)benzyl)-2-methyl-5-(1-pentanesulfonylcarbamoyl)-3H-imidazo[4,5-b]pyridine]", "values": [{"measurement": "melting point", "value": "133 to 136", "unit": "°C"}]}, {"compound": "CCCCOc1ccc(Cn2c(C)nc3ccc(C(=O)NS(=O)(=O)CCCC)nc32)c(Cl)c1", "note": "[Example 18, 5-(1-butanesulfonylcarbamoyl)-3-(2-chloro-4-(1-butoxy)benzyl)-2-methyl-3H-imidazo[4,5-b]pyridine]", "values": [{"measurement": "melting point", "value": "144 to 145", "unit": "°C"}]}, {"compound": "CCCCCOc1ccc(Cn2c(C)nc3ccc(C(=O)NS(=O)(=O)CCCCC)nc32)c(Cl)c1", "note": "[Example 20, 3-(2-chloro-4-(1-pentyloxy)benzyl)-2-methyl-5-(1-pentanesulfonylcarbamoyl)-3H-imidazo[4,5-b]pyridine]", "values": [{"measurement": "melting point", "value": "128 to 131", "unit": "°C"}]}, {"compound": "CCCCCOc1ccc(Cn2c(C)nc3ccc(C(=O)NS(=O)(=O)CCCC)nc32)c(Cl)c1", "note": "[Example 21, 5-(1-butanesulfonylcarbamoyl)-3-(2-chloro-4-(1-pentyloxy)benzyl)-2-methyl-3H-imidazo[4,5-b]pyridine]", "values": [{"measurement": "melting point", "value": "145 to 146", "unit": "°C"}]}, {"compound": "CCCCCOc1ccc(Cn2c(C)nc3ccc(C(=O)NS(=O)(=O)c4ccc(Br)s4)nc32)c(Cl)c1", "note": "[Example 23, 5-[(5-bromothiophen-2-yl)sulfonylcarbamoyl]-3-[2-chloro-4-(1-pentyloxy)benzyl]-2-methyl-3H-imidazo[4,5-b]pyridine]", "values": [{"measurement": "melting point", "value": "156 to 157", "unit": "°C"}]}, {"compound": "CCCCCOc1ccc(Cn2c(C)nc3ccc(C(=O)NS(=O)(=O)c4ccc(Cl)s4)nc32)c(Cl)c1", "note": "[Example 24, 3-[2-chloro-4-(1-pentyloxy)benzyl]-2-methyl-5-[(5-chlorothiophen-2-yl)sulfonylcarbamoyl]-3H-imidazo[4,5-b]pyridine]", "values": [{"measurement": "melting point", "value": "154 to 155", "unit": "°C"}]}, {"compound": "CCCCCOc1ccc(Cn2c(C)nc3ccc(C(=O)NS(=O)(=O)NCCC)nc32)c(Cl)c1", "note": "[Example 25, 5-((1-propylaminosulfonyl)carbamoyl)-3-(2-chloro-4-(1-pentyloxy)benzyl)-2-methyl-3H-imidazo[4,5-b]pyridine]", "values": [{"measurement": "melting point", "value": "155 to 158", "unit": "°C"}]}, {"compound": "CCCCCOc1ccc(Cn2c(C)nc3ccc(C(=O)NS(=O)(=O)NCCCC)nc32)c(Cl)c1", "note": "[Example 26, 5-((1-butylaminosulfonyl)carbamoyl)-3-(2-chloro-4-(1-pentyloxy)benzyl)-2-methyl-3H-imidazo[4,5-b]pyridine]", "values": [{"measurement": "melting point", "value": "136 to 138", "unit": "°C"}]}, {"compound": "CCCCCS(=O)(=O)NC(=O)c1ccc2nc(C)n(Cc3ccc(OCC4CCCC4)cc3Cl)c2n1", "note": "[Example 27, 3-(2-chloro-4-((cyclopentylmethyl)oxy)benzyl)-2-methyl-5-(1-pentanesulfonylcarbamoyl)-3H-imidazo[4,5-b]pyridine]", "values": [{"measurement": "melting point", "value": "160 to 161", "unit": "°C"}]}, {"compound": "CCCCS(=O)(=O)NC(=O)c1ccc2nc(C)n(Cc3ccc(OCC4CCCC4)cc3Cl)c2n1", "note": "[Example 28, 5-(1-butanesulfonylcarbamoyl)-3-(2-chloro-4-((cyclopentylmethyl)oxy)benzyl)-2-methyl-3H-imidazo[4,5-b]pyridine]", "values": [{"measurement": "melting point", "value": "180 to 181", "unit": "°C"}]}, {"compound": "CCCCCS(=O)(=O)NC(=O)c1cc(C)c2nc(C)n(Cc3ccc(OCCC)cc3Cl)c2n1", "note": "[Example 35, 3-(2-chloro-4-(1-propoxy)benzyl)-2,7-dimethyl-5-(1-pentanesulfonylcarbamoyl)-3H-imidazo[4,5-b]pyridine]", "values": [{"measurement": "melting point", "value": "161 to 162", "unit": "°C"}]}, {"compound": "CCCCS(=O)(=O)NC(=O)c1cc(C)c2nc(C)n(Cc3ccc(OCCC)cc3Cl)c2n1", "note": "[Example 36, 5-(1-butanesulfonylcarbamoyl)-3-[2-chloro-4-(1-propoxy)benzyl]-2,7-dimethyl-3H-imidazo[4,5-b]pyridine]", "values": [{"measurement": "melting point", "value": "164 to 166", "unit": "°C"}]}, {"compound": "CCCCCOc1ccc(Cn2c(C)nc3c(C)cc(C(=O)NS(=O)(=O)CCCCC)nc32)c(Cl)c1", "note": "[Example 38, 3-[2-chloro-4-(1-pentyloxy)benzyl]-2,7-dimethyl-5-(1-pentanesulfonylcarbamoyl)-3H-imidazo[4,5-b]pyridine]", "values": [{"measurement": "melting point", "value": "149 to 150", "unit": "°C"}]}, {"compound": "CCCCCS(=O)(=O)NC(=O)c1ccc2nc(C)n(Cc3ccc(N(C)C(=O)OC(C)(C)C)cc3Cl)c2n1", "note": "[Example 41, 3-(4-(N-(tert-butoxycarbonyl)-N-methylamino)-2-chlorobenzyl)-2-methyl-5-(1-pentanesulfonylcarbamoyl)-3H-imidazo[4,5-b]pyridine]", "values": [{"measurement": "melting point", "value": "160 to 161", "unit": "°C"}]}, {"compound": "CCCCCS(=O)(=O)NC(=O)c1ccc2nc(C)n(Cc3ccc(NC)cc3Cl)c2n1", "note": "[Example 42, 3-(2-chloro-4-(methylamino)benzyl)-2-methyl-5-(1-pentanesulfonylcarbamoyl)-3H-imidazo[4,5-b]pyridine]", "values": [{"measurement": "melting point", "value": "185 to 186", "unit": "°C"}]}, {"compound": "CCCCCS(=O)(=O)NC(=O)c1ccc2nc(C)n(Cc3ccc(N(C)CC)cc3Cl)c2n1", "note": "[Example 43, 3-(2-chloro-4-(ethylmethylamino)benzyl)-2-methyl-5-(1-pentanesulfonylcarbamoyl)-3H-imidazo[4,5-b]pyridine]", "values": [{"measurement": "melting point", "value": "148 to 149", "unit": "°C"}]}, {"compound": "CCCCCS(=O)(=O)NC(=O)c1ccc2nc(C)n(Cc3ccc(N(C)CCC)cc3Cl)c2n1", "note": "[Example 44, 3-(2-chloro-4-(methyl-(1-propyl)amino)benzyl)-2-methyl-5-(1-pentanesulfonylcarbamoyl)-3H-imidazo[4,5-b]pyridine]", "values": [{"measurement": "melting point", "value": "129 to 130", "unit": "°C"}]}, {"compound": "CCCCCS(=O)(=O)NC(=O)c1ccc2nc(C)n(Cc3ccc(N(C)CCCC)cc3Cl)c2n1", "note": "[Example 45, 3-(4-((1-butyl)methylamino)-2-chlorobenzyl)-2-methyl-5-(1-pentanesulfonylcarbamoyl)-3H-imidazo[4,5-b]pyridine]", "values": [{"measurement": "melting point", "value": "129 to 130", "unit": "°C"}]}, {"compound": "CCCCCN(C)c1ccc(Cn2c(C)nc3ccc(C(=O)NS(=O)(=O)CCCCC)nc32)c(Cl)c1", "note": "[Example 52, 3-(2-chloro-4-(methyl-(1-pentyl)amino)benzyl)-2-methyl-5-(1-pentanesulfonylcarbamoyl)-3H-imidazo[4,5-b]pyridine]", "values": [{"measurement": "melting point", "value": "83 to 85", "unit": "°C"}]}]}
